Measurements taken from ChEMBL document CHEMBL1143567, “Hierarchical database screenings for HIV-1 reverse transcriptase using a pharmacophore model, rigid docking, solvation docking, and MM-PB/SA” (J Med Chem, 2005).

system: Human immunodeficiency virus 1; assay: Concentration required to inhibit 50% viral production of human immunodeficiency virus type 1 (HIV-1-IIIB); format: functional, organism-based

| Compound | IC50 [nM] |
| --- | --- |
| CN1C(=O)c2ccccc2C1(N)c1ccccc1 (stereo not given) | 10000 |
| CC1Oc2c3c(c4c(-c5ccccc5)cc(=O)oc4c2C(O)C1C)OC(C)(C)C=C3 (stereo not given) | 1400 |
| CC(=O)c1ccc(C)cc1NC(C(N)=O)c1c(Br)cccc1Br (stereo not given) | 420 |
| Cc1c(Sc2ccccc2)n(COCCO)c(=S)[nH]c1=O | 1600 |
| S=C(NCCc1ccccc1)Nc1nccs1 | 1300 |
| C=CCN1Cc2cccc3[nH]c(=O)n(c23)CC1C (stereo not given) | 62000 |
| CCN1c2ncccc2-c2ncc(C)n2-c2ccc(OC)nc21 | 190 |
| Cc1c(O)nc(OC2CCCCC2)nc1Cc1ccccc1 | 4700 |
| CCCCCC=C(c1cc(Br)c(OC)c(C(=O)OC)c1)c1cc(Br)c(OC)c(C(=O)OC)c1 | 16000 |
| CCN1c2cc([N+](=O)[O-])ccc2N(C)C(=O)c2cccnc21 | 400 |
| O=C(O)C1=CC(=C(c2ccc(O)c(C(=O)O)c2)c2ccc(O)c(C(=O)O)c2)C=CC1=O [AURINTRICARBOXYLIC ACID] | 5000 |
| CC(C)c1nc(COC(N)=O)n(Cc2ccncc2)c1Sc1cc(Cl)cc(Cl)c1 [CAPRAVIRINE] | 3.1 |
| CC(C)Nc1cccnc1N1CCN(C(=O)c2cc3cc(NS(C)(=O)=O)ccc3[nH]2)CC1 [DELAVIRDINE] | 1100 |
| Cc1c(Sc2ccccc2)n(COCCO)c(=O)[nH]c1=O [HEPT] | 7000 |
| Cc1ccnc2c1NC(=O)c1cccnc1N2C1CC1 [NEVIRAPINE] | 200 |

Further lines, results first:

| IC50 [nM] | Compound |
| --- | --- |
| 6 | COc1ccc2c(c1)N(C(=O)OC(C)C)C(CSC)C(S)=N2 (stereo not given) |
| 42 | CC1=C(C(=O)Nc2ccc(Cl)c(C(=O)OC(C)C)c2)SCCO1 |
| 50 | CCC1=CC(NCc2nc3c(C)ccc(C)c3o2)C(=O)N=C1C (stereo not given) |
| 50 | Fc1cccc(Cl)c1CCNC(=S)Nc1nccs1 |
| 0.36 | O=C1Nc2ccc(Cl)cc2[C@@](C#CC2CC2)(C(F)(F)F)N1 |
| 26 | CC(=O)c1ccccc1NC(C(N)=O)c1c(Cl)cccc1Cl (stereo not given) |
| 0.4 | O=C1Nc2ccc(Cl)cc2C(/C=C/C2CC2)(C(F)(F)F)N1 (stereo not given) |
| 16 | O=C1c2ccccc2C2(c3ccccc3)SCCN12 (stereo not given) |
| 6 | CC(C)c1c(Cc2ccccc2)n(COCc2ccccc2)c(=O)[nH]c1=O |
| 29 | CC(C)OC(=O)c1cc(NC(=S)OC(C)C)ccc1Cl |
| 33 | NC(=O)C(Nc1ccccc1[N+](=O)[O-])c1c(Cl)cccc1Cl (stereo not given) |
| 10 | Fc1cccc(F)c1CC/N=C(\S)Nc1ccc(Br)cn1 |
| 2.7 | Cc1cc(C)cc(Cc2c(C(C)C)c(=O)[nH]c(=O)n2COCCO)c1 |
| 2.93 | O=C1Nc2ccc(Cl)cc2[C@@](C#CC2CC2)(C(F)(F)F)O1 [EFAVIRENZ] |
| 8 | CCOCn1c(Cc2ccccc2)c(C(C)C)c(=O)[nH]c1=O [EMIVIRINE] |
| 100 | CC(=O)c1ccc(C)cc1NC(C(N)=O)c1c(Cl)cccc1Cl (stereo not given) [LOVIRIDE] |
| 33 | CC(C)=CCN1Cc2cc(Cl)cc3nc(S)n(c23)CC1C (stereo not given) [TIBO] |
| 3 | CC(C)=CCN1Cc2c(Cl)ccc3[nH]c(=S)n(c23)C[C@@H]1C [TIVIRAPINE] |
| 20 | S=C(NCCc1ccccn1)Nc1ccc(Br)cn1 [TROVIRDINE] |
| 9 | CC(C)=CCOc1cc(NC(=S)c2ccoc2C)ccc1Cl [UC 781] |
